From patent US20190142775A1, “TREATING ACTIVATED DERMAL CONDITIONS WITH AGENTS THAT TARGET ENERGY METABOLISM” (Sciaderm, Inc., priority 2016, published 2019)

Key:
[1] = at higher pH (e.g., physiologic pH); cited from earlier work
psoriatic plaques = test: Open label case report: topical 3-BP formulation applied to psoriatic plaques of one subject; format: in vivo, human
Procedure: The present Example describes use of an exemplary topical formulation of 3-BP in the treatment of psoriasis. The goal of this study is to reduce the hyper-proliferation of skin cells and deactivate the inflammatory response associated with the condition. Therefore, treatment was planned in a sequential dose escalating fashion. Dose escalation is accomplished by a step wise increase in formulation strength and/or application volume and frequency. Daily or twice daily doses were administered, with an initial strength ranging from about 0.001% to about 0.05% and administered doses were increased incrementally to a final strength ranging from about 5% to about 25% of the total weight of the formulation. As a first objective, the maximum tolerated dose was established, which was indicated by the observation of local irritation in the area of application. In some cases, once local irritation was observed, dosing was then reduced by approximately factor of four and continued or readjusted as appropriate to assess efficacy.
An exemplary topical formulation of 3-BP was prepared as described below: […]
An exemplary 3-Bromo-Pyruvic Acid (“BPA”) formulation was compounded as a lotion of low viscosity, filled dropper bottles (e.g., a 3 mL dropper bottle).
Compounding: 3-Bromo-Pyruvic Acid, BPA, CAS#1113-59-3, was obtained from AK Scientific, Inc., Union City, Calif. and stored at frozen conditions. Given the known instability of BPA at higher pH (e.g., physiologic pH) the final formulation consisted of 75% acetic acid (5% w/w) and 25% compounding base with a pH of approximately 3.0. During formulation, all ingredients were chilled to +5° C., and kept on ice for the entire procedure.
Stock solution A was prepared by dissolving the appropriate amount of solid bromopyruvic acid, BPA, in 5% acetic acid at a concentration of 2% to 10% (w/w); depending on the desired final concentration, intermediate dilutions of for example 1:5, using 5% acetic acid, may have been prepared as well.
Stock solution B consisted of a commercially available compounding base, Vanicream™, NDC 45334-300-16, that was diluted 1:1 in 5% acetic acid. The final formulation was comprised of blending BPA solution (Stock A) with compounding base (Stock B) at a ratio of 1:1. The resulting formulation is of low viscosity and filled in 3 ml ophthalmic dropper bottles.
Final concentration of BPA was between 0.15 mM (0.0025% w/w) and 300 mM (5.0% w/w). To preserve stability of the active ingredient, the formulation was stored frozen at −18° C. until use. Once treatment application commenced, bottles were kept at refrigerated conditions (+5° C.) for up to 1 week and then replaced with freshly made product.
This research was conducted as an out-patient, open label, intra-individually controlled repeated measurement experiment involving up to 10 subjects. To minimize bias, subjects were treated at selected target plaques. Neighboring plaques serve as an intra-individual control.
An exemplary 3-BP formulation was self-administered as one or two drops per application, depending on size of the treatment area. Care was taken for drops to fall freely from the dropper tip to ensure a consistent dose volume of ≈25-50 μl/drop. Most treatment applications were done in the morning and photographs were taken mostly in the evening to allow possible moisturizing effects of the compounding base to wear off.
Within each treatment area, the severity is estimated by three clinical signs: erythema (redness), induration (thickness) and desquamation (scaling). Efficacy is assessed using the Investigators Global Assessment scale and the Psoriasis Area Severity Index (PASI), which are summarized in Tables 1 and 2 below. In addition, target lesions are photographed and adjudicated by a blinded independent investigator. These efficacy variables were assessed at every visit.
Safety is assessed by collection of research events and review of concomitant treatments. Clinical adverse event reporting is conducted at each visit. […]

[2] = Plaque #3, right forearm, one drop per day, 1.75 mM, one week
[3] = Plaque #4, left forearm, 0.15 mM, QD, 2.5 weeks
[4] = Plaque #5, left elbow, 1 drop per day, 0.15 mM, 10 days

## O=C(O)C(=O)CBr [3-BP, 3-bromopyruvate]
[1]
  Stability of BPA: instability
Psoriatic plaques; 0.5 mM, summary of case report
  Adverse effects at a strength of 0.5 mM: without any observable adverse effects
  Efficacy at a strength of 0.5 mM: highly effective
Psoriatic plaques; Plaque 1, left forearm, 26 weeks after baseline (FIG. 1)
  Plaque status 20 weeks after last treatment application: complete remission
Psoriatic plaques; Plaque 1, left forearm, BID, 0.1% to 5.0% (6-300 mM), after approximately one week of treatment
  Local adverse effects: local irritation, oozing, and crusting
Psoriatic plaques; Plaque 1, left forearm, one drop twice per day, strength escalated 0.1% to 5.0% (6-300 mM) in first week, later reduced to QD and 0.1%, stopped after 6 weeks
  Treatment effect on psoriatic plaque: completely resolved
Psoriatic plaques; Plaque #2, right forearm
  Plaque status 20 weeks after last treatment application: complete remission
Psoriatic plaques; Plaque #2, right forearm, as of the date of the last visit
  Duration of complete remission after last treatment application: approximately 8 months
Psoriatic plaques; Plaque #2, right forearm, once daily 0.1% (6 mM) one week, then 0.03% (1.75 mM) two weeks
  Tolerability / local adverse effects: well tolerated and only some mild local irritation
Psoriatic plaques; Plaque #2, right forearm, once daily 0.1% (6 mM) one week, then 0.03% (1.75 mM) two weeks, Day 21
  Treatment effect on psoriatic plaque: mostly resolved
Psoriatic plaques; Plaque #3, right forearm, 0.5 mM, once per day
  Tolerability: well tolerated
Psoriatic plaques; Plaque #3, right forearm, 1 mM QD 10 days, then 0.5 mM once per day
  Treatment effect on severity of psoriasis plaques: Significant improvement
Psoriatic plaques; Plaque #3, right forearm, 1 mM, QD, 10 days
  Local adverse effects: minor local irritation
Psoriatic plaques; Plaque #3, right forearm, after 1.75 mM QD and 6 mM every other day
  Plaque status after treatment was stopped: psoriatic skin afflictions remained
Psoriatic plaques; [2]
  Local adverse effects: itching and pin-head sized crusting
  Treatment effect on psoriatic plaque: improved
Psoriatic plaques; Plaque #3, right forearm, resumed at 6 mM every other day after one week pause
  Local adverse effects: local irritation became more pronounced
Psoriatic plaques; [3]
  Tolerability: well tolerated
  Treatment effect on psoriatic plaque: only marginal efficacy
Psoriatic plaques; Plaque #4, left forearm, 0.5 mM
  Time plaque remained resolved after the last application: more than 6 weeks
Psoriatic plaques; Plaque #4, left forearm, 0.5 mM, Day 18 to 43
  Local adverse effects: did not induce any local irritancy or other unwanted effects
Psoriatic plaques; Plaque #4, left forearm, 0.5 mM, Day 18 to 43, continued treatment
  Treatment effect on psoriatic plaque: completely resolved
Psoriatic plaques; Plaque #5, left elbow, 0.5 mM, 1 drop QD Days 10-19, 2 drops QD from Day 20, Day 47 (FIG. 4), versus untreated right elbow
  Treatment effect on psoriatic plaque: completely clear of psoriasis
Psoriatic plaques; [4]
  Tolerability: well tolerated
  Treatment effect on psoriatic plaque: only marginal improvement
Psoriatic plaques; five different or recurring psoriasis plaques, over a period of three to six weeks
  Response of all treated plaques: responded favorably or completely resolved
Psoriatic plaques; local irritation, including oozing and crusting, summary of case report
  Concentration inducing local irritation / at which adverse events started to emerge: ≥ 1000 µM
Psoriatic plaques; within a few weeks after treatment was stopped
  Outcome of local adverse effects after cessation of treatment: resolved without sequelae
